Tests used:
[1] = Compatibility of acetic acid sources with the gelatin and plasticizer matrix; assay type: physicochemical; conditions: acetic acid source tested individually
Experimental: Various sources of acetic acid were tested in the laboratory to determine their compatibility with the gelatin and plasticizer matrix.

[2] = in softgel liquid fill materials
Description: The Bragg brand of apple cider vinegar hardshell capsules include sodium diacetate.

Structure (SMILES) | compatibility with the gelatin and plasticizer matrix (reaction observed) [1] | effect on softgel shell [2]
CC(=O)[O-].CC(=O)[O-].[Ca+2] [Calcium acetate] | partially gelled up and liquified | 
CC(=O)O.NCCCC[C@H](N)C(=O)O [Lysine acetate powder, Lysine acetate] | completely liquefied | 
CC(=O)O.CC(=O)[O-].[Na+] [Sodium diacetate] | corroding a hole in the gelatin and causing leakage of the fill material | causes holes to form in the softgel shell
CC(=O)[O-].CC(=O)[O-].[Zn+2] [Zinc acetate] | least reaction | 

From patent US20250248944A1, “SOFTGEL CAPSULES HAVING A FILL COMPOSITION COMPRISING APPLE CIDER VINEGAR” (CAPTEK SOFTGEL INTERNATIONAL, INC., priority 2024, published 2025)
